The source of these data is US12448369B2 (Edgewise Therapeutics, Inc., priority 2023, dated 2025).

In assay [1] the test system is Porcine atria myofibrils (atrial myosin ATPase). Put plainly: Myofibril ATPase assay, porcine atria myofibrils. Type of assay: biochemical. Conditions: porcine atria myofibrils. In a few lines: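 Y75 (25% inhibition) or Y125 (activation) values come from 4-parameter logistic fits of vehicle-normalized rates. Rates are linear-regression slopes of NADH absorbance at 340 nm, read kinetically over 75 min, with ADP coupled to NADH oxidation via pyruvate kinase/lactate dehydrogenase.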

Assay [2] concerns the target T1, Porcine ventricle myofibrils (ventricular myosin ATPase) (Sus scrofa, UniProt P79293).
T1 construct: Myofibrils from porcine cardiac muscle was isolated from the left ventricle of Yucatan minipigs; tissue Exemplar Genetics; host or cells: left ventricle of Yucatan minipigs, myofibrils prepared in house
The assay is described as follows: Myofibril ATPase assay, porcine ventricle myofibrils. Type of assay: biochemical, porcine (Yucatan minipigs). To be noted: porcine ventricle myofibrils. An outline of the steps:
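Read-out: A340 kinetic, NADH consumption coupled to ADP via PK-LDH, 75 min. Yucatan minipig LV myofibrils, pCa buffer (PIPES/CaCl2/EGTA, pH 7.0). Linear-regression slope (mAU/min), vehicle = 100%, 4PL fit; Y75 or Y125 reported.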

Assay [3] has as its system Rabbit Psoas myofibrils (skeletal myosin ATPase). The assay is described as follows: Myofibril ATPase assay, rabbit psoas (skeletal) myofibrils. The format is biochemical. Conditions: rabbit psoas myofibrils. An outline of the steps: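 Values are concentrations giving 75% (Y75) or 125% (Y125) of vehicle ATPase activity, from 4-parameter logistic fits of normalized rates. Rates came from linear regression of A340 over 75 min, NADH oxidation coupled to ADP via PK-LDH. Enzyme source: skeletal myofibrils from rabbit psoas, pH 7.0 pCa buffer.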

[4] abbreviates: Y75 value (75% activity relative to no compound).

Molecules are shown by their SMILES.

T1 sequence (P79293 whole entry): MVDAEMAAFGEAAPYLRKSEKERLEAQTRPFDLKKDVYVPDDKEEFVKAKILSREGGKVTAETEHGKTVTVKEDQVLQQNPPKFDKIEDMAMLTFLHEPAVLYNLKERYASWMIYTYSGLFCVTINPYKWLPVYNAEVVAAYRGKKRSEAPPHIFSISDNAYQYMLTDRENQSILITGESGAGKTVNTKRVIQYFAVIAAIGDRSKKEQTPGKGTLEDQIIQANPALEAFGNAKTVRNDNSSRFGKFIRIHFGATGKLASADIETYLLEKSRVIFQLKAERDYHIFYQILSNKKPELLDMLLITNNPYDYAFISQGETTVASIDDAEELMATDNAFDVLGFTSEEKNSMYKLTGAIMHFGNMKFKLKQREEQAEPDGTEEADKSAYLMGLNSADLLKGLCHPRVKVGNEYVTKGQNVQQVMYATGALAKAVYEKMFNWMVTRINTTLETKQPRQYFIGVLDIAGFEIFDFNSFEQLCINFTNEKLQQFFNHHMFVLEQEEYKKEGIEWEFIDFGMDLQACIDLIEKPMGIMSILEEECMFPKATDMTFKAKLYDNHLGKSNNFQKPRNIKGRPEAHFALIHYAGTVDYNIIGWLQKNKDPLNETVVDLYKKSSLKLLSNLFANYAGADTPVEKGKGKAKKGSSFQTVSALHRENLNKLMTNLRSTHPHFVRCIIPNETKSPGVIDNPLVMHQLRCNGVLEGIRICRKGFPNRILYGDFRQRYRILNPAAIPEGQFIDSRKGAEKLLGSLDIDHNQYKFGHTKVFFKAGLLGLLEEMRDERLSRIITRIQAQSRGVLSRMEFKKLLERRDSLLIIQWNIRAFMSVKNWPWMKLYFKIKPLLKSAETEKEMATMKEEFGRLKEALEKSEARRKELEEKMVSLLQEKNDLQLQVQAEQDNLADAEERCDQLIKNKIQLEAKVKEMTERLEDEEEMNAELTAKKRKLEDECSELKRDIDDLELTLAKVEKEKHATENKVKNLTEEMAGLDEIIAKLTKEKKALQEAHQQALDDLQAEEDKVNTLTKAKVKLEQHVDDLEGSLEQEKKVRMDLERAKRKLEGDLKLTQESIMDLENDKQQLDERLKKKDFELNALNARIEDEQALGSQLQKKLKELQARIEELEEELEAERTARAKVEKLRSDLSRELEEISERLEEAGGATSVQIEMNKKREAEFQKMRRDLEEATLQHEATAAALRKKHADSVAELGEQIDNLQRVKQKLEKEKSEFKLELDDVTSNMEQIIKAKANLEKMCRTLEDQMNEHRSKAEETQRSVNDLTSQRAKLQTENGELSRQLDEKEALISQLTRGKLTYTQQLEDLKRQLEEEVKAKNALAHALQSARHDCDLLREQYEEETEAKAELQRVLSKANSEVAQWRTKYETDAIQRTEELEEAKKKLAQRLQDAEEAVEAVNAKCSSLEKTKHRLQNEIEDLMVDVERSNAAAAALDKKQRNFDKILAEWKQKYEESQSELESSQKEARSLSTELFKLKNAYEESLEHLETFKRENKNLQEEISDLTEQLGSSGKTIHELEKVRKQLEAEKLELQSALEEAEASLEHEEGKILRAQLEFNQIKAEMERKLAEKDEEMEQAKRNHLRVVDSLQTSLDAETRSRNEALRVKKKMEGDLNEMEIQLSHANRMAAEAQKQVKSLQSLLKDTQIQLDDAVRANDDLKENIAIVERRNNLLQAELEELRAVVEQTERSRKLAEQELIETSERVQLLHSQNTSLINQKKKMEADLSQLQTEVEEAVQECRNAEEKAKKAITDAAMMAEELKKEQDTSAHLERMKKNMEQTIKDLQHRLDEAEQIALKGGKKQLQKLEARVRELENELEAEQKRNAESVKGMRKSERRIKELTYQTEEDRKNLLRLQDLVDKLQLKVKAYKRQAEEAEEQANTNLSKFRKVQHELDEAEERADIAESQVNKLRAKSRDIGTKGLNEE

With `Cc1c([C@H](C)C(=O)N[C@@H](C)c2ccc(F)cc2F)c(=O)[nH]c2ccc(C(F)(F)F)nc12` (single isomer, unassigned) [compound 369], in assay [1] (setting [4]), the “Atrial EC25” value is 290 nM. Also, the “Ventricular EC25” value in assay [2] (Y75 value) is 60830 nM. Besides, the “Skeletal EC25” value in assay [3] (Y75 value) worked out at 15360 nM.
Turning to `Cc1cc(C#N)ccc1[C@@H](C)NC(=O)Cc1c(O)c2cc(F)c(F)cc2[nH]c1=O` [compound 1088], the “Atrial EC25” value in assay [1] (Y75 value (no ‡ mark)) was found to be 5780 nM. The “Ventricular EC25” value in assay [2] (Y75 value (no ‡ mark)) is 100000 nM. Also, in assay [3] (Y75 value (no ‡ mark)), the “Skeletal EC25” value was found to be 100000 nM.
`Cc1c(C(F)(F)C(=O)N[C@H](C)c2ncc(C#N)cn2)c(=O)[nH]c2ccc(F)c(C(F)(F)F)c12` (single isomer, unassigned) [Compound 2513]: in assay [1] (Y75 value (no ‡ mark)), the “Atrial EC25” value was 430 nM. Besides, the “Ventricular EC25” value in assay [2] (Y75 value (no ‡ mark)) was 1620 nM. The “Skeletal EC25” value in assay [3] (Y75 value (no ‡ mark)) turned out to be 340 nM.
On the same counts, the results for `N#Cc1cnc2c(n1)CC[C@H]2NC(=O)Cc1cc2cc(F)c(F)cc2[nH]c1=O` [compound 1082] are 100000 nM, 100000 nM and 100000 nM.
On the same counts, the results for `Cc1c([C@H](C)C(=O)N[C@@H](C)c2ccc(F)cc2F)c(=O)[nH]c2ccc(F)c(F)c12` (single isomer, unassigned) [compound 112] are 60 nM, 310 nM and 30 nM.
The matching figures for `Cc1c(C(F)(F)C(=O)N[C@H](C)c2ncc(C#N)cc2F)c(=O)[nH]c2ccc(F)c(C#N)c12` (single isomer, unassigned) [compound 4835]: 180 nM, 770 nM and 110 nM.
Regarding `Cc1nccc2[nH]c(=O)c(CC(=O)N[C@H](C)c3ccncc3)c(C)c12` (single isomer, unassigned) [compound 333], the “Atrial EC25” value in assay [1] (setting [4]) came to 100000 nM. The “Ventricular EC25” value in assay [2] (Y75 value) turned out to be 100000 nM. Moreover, the “Skeletal EC25” value in assay [3] (Y75 value) stood at 100000 nM.
For `Cc1nc(C#N)cnc1[C@@H](C)NC(=O)Cc1c(C)c2c(C#N)c(F)ccc2[nH]c1=O` (single isomer, unassigned) [compound 1], in assay [1] (Y75 value (no ‡ mark)), the “Atrial EC25” value was 70 nM. In assay [2] (Y75 value (no ‡ mark)), the “Ventricular EC25” value came out at 140 nM. Also, the “Skeletal EC25” value in assay [3] (Y75 value (no ‡ mark)) amounted to 110 nM.
With `Cc1c(CC(=O)N[C@@H](CO)c2ncc(C#N)cc2F)c(=O)[nH]c2ccnc(C#N)c12` (single isomer, unassigned) [compound 246], in assay [1] (setting [4]), the “Atrial EC25” value was determined as 130 nM. For the same compound, in assay [2] (Y75 value), the “Ventricular EC25” value stood at 150 nM. Besides, in assay [3] (Y75 value), the “Skeletal EC25” value was found to be 30 nM.
On the same counts, the results for `Cc1c(CC(=O)N[C@@H](CO)c2ncccc2F)c(=O)[nH]c2ccnc(C#N)c12` (single isomer, unassigned) [compound 236] are 38110 nM, 100000 nM and 590 nM.
On the same counts, the results for `Cc1c(CC(=O)N[C@H](C)c2ncc(C#N)cc2F)c(=O)[nH]c2ccc(O)nc12` [compound 165] are 2770 nM, 100000 nM and 47800 nM.
Regarding `Cc1c(CC(=O)N[C@@H](C)c2cnc(C#N)cn2)c(=O)[nH]c2cc(F)c(F)cc12` [compound 1103], the “Atrial EC25” value in assay [1] (Y75 value (no ‡ mark)) is 400 nM. Also, in assay [2] (Y75 value (no ‡ mark)), the “Ventricular EC25” value stood at 1070 nM. For the same compound, in assay [3] (Y75 value (no ‡ mark)), the “Skeletal EC25” value amounted to 60 nM.
As for `COc1cccc([C@@H](C)NC(=O)Cc2c(C)c3c(C)nccc3[nH]c2=O)c1` (single isomer, unassigned) [compound 314], the “Atrial EC25” value in assay [1] (setting [4]) amounted to 100000 nM. Besides, the “Ventricular EC25” value in assay [2] (Y75 value) stood at 100000 nM. Moreover, in assay [3] (Y75 value), the “Skeletal EC25” value turned out to be 100000 nM.
`Cc1nccc2[nH]c(=O)c(CC(=O)N[C@@H]3c4c(F)cc(F)cc4OC3(C)C)c(C)c12` (single isomer, unassigned) [compound 190]: in assay [1] (setting [4]), the “Atrial EC25” value came out at 8110 nM. For the same compound, the “Ventricular EC25” value in assay [2] (Y75 value) was found to be 45620 nM. Further, in assay [3] (Y75 value), the “Skeletal EC25” value turned out to be 100000 nM.
With `Cc1c(C2(C(=O)N[C@H](C)c3cc(C#N)ccn3)CC2)c(=O)[nH]c2ccc(F)c(F)c12` (single isomer, unassigned) [compound 2539], the “Atrial EC25” value in assay [1] (Y75 value (no ‡ mark)) is 2760 nM. Moreover, the “Ventricular EC25” value in assay [2] (Y75 value (no ‡ mark)) amounted to 100000 nM. Moreover, the “Skeletal EC25” value in assay [3] (Y75 value (no ‡ mark)) is 100000 nM.
As for `COc1ccc([C@@H](C)NC(=O)Cc2c(C)c3c(C)nccc3[nH]c2=O)cn1` (single isomer, unassigned) [compound 290], the “Atrial EC25” value in assay [1] (setting [4]) amounted to 100000 nM. Moreover, in assay [2] (Y75 value), the “Ventricular EC25” value amounted to 100000 nM. In addition, the “Skeletal EC25” value in assay [3] (Y75 value) is 100000 nM.
For `C[C@H](NC(=O)C1(c2cc3c(F)c(F)ccc3[nH]c2=O)CC1)c1ccc(C#N)cn1` (single isomer, unassigned) [compound 4810], the “Atrial EC25” value in assay [1] (Y75 value (no ‡ mark)) is 1900 nM. For the same compound, the “Ventricular EC25” value in assay [2] (Y75 value (no ‡ mark)) came to 100000 nM. Besides, the “Skeletal EC25” value in assay [3] (Y75 value (no ‡ mark)) came to 100000 nM.
For `Cc1c(CC(=O)N[C@@H](CO)c2ccc(F)cc2F)c(=O)[nH]c2ccnc(OC3CC3)c12` [compound 200], the “Atrial EC25” value in assay [1] (setting [4]) stood at 3030 nM. The “Ventricular EC25” value in assay [2] (Y75 value) was 100000 nM. The “Skeletal EC25” value in assay [3] (Y75 value) was found to be 190 nM.
In the case of `C[C@H](NC(=O)[C@@H](C)c1cc2c(C3CC3)nccc2[nH]c1=O)c1ccc(F)cc1F` (single isomer, unassigned) [compound 356], the “Atrial EC25” value in assay [1] (setting [4]) was 100000 nM. In assay [2] (Y75 value), the “Ventricular EC25” value was determined as 100000 nM. Also, the “Skeletal EC25” value in assay [3] (Y75 value) worked out at 157500 nM.
Regarding `N#Cc1cnc2c(c1)OC[C@H]2NC(=O)Cc1cc2c(F)c(F)ccc2[nH]c1=O` (single isomer, unassigned) [compound 13], the “Atrial EC25” value in assay [1] (Y75 value (no ‡ mark)) turned out to be 320 nM. The “Ventricular EC25” value in assay [2] (Y75 value (no ‡ mark)) was 90 nM. Also, the “Skeletal EC25” value in assay [3] (Y75 value (no ‡ mark)) stood at 50 nM.
The matching figures for `C[C@@H](NC(=O)C1(c2cc3c(F)c(F)ccc3[nH]c2=O)CC1)c1ccc(C#N)cn1` (single isomer, unassigned) [compound 4809]: 3070 nM, 31200 nM and 1340 nM.
On the same counts, the results for `Cc1c(F)ccc2[nH]c(=O)c(CC(=O)N[C@H](C)c3ccc(C#N)cc3F)c(O)c12` [compound 19] are 100000 nM, 1010 nM and 2920 nM.
As to `Cc1nccc2[nH]c(=O)c(CC(=O)N[C@@H](C)c3ccccc3O)c(C)c12` (single isomer, unassigned) [compound 321], the “Atrial EC25” value in assay [1] (setting [4]) worked out at 100000 nM. Further, the “Ventricular EC25” value in assay [2] (Y75 value) is 100000 nM. For the same compound, the “Skeletal EC25” value in assay [3] (Y75 value) is 100000 nM.
Turning to `Cc1c(CC(=O)N[C@@H](C)c2ncc(C#N)cn2)c(=O)[nH]c2ccc(F)c(C3CC3)c12` (single isomer, unassigned) [compound 2060], the “Atrial EC25” value in assay [1] (Y75 value (no ‡ mark)) was 450 nM. The “Ventricular EC25” value in assay [2] (Y75 value (no ‡ mark)) amounted to 3020 nM. Moreover, in assay [3] (Y75 value (no ‡ mark)), the “Skeletal EC25” value was found to be 260 nM.
As to `C[C@H](NC(=O)Cc1c(C2CC2)c2cc(F)ccc2[nH]c1=O)c1ncc(C#N)cc1F` [compound 40], the “Atrial EC25” value in assay [1] (Y75 value (no ‡ mark)) was determined as 470 nM. Also, in assay [2] (Y75 value (no ‡ mark)), the “Ventricular EC25” value came out at 410 nM. The “Skeletal EC25” value in assay [3] (Y75 value (no ‡ mark)) is 20 nM.
On the same counts, the results for `Cc1c(F)ccc2[nH]c(=O)c(CC(=O)N[C@H](C)c3ncc(F)cc3F)c(C#N)c12` [compound 1147] are 2840 nM, 940 nM and 1010 nM.
As to `CC(=O)N1C[C@H](NC(=O)Cc2c(C)c3c(C)nccc3[nH]c2=O)c2c(F)cc(F)cc21` [compound 206], the “Atrial EC25” value in assay [1] (setting [4]) amounted to 100000 nM. The “Ventricular EC25” value in assay [2] (Y75 value) came to 100000 nM. Also, in assay [3] (Y75 value), the “Skeletal EC25” value was determined as 400 nM.
Take `C[C@@H](NC(=O)Cc1c(C2CC2)c2c(F)cccc2[nH]c1=O)c1ncc(C#N)cc1F` [compound 1143]: in assay [1] (Y75 value (no ‡ mark)), the “Atrial EC25” value came out at 1440 nM. The “Ventricular EC25” value in assay [2] (Y75 value (no ‡ mark)) was 4450 nM. Besides, the “Skeletal EC25” value in assay [3] (Y75 value (no ‡ mark)) came out at 1780 nM.
The matching figures for `Cc1c(CC(=O)N[C@H](C)c2cnc(C#N)nc2)c(=O)[nH]c2ccc(F)cc12` [compound 1100]: 770 nM, 2270 nM and 530 nM.
In the case of `Cc1c(CC(=O)N[C@@H](C)c2ccc(F)cc2F)c(=O)[nH]c2ccc(OCC(F)(F)F)nc12` [compound 400], the “Atrial EC25” value in assay [1] (setting [4]) was determined as 1550 nM. The “Ventricular EC25” value in assay [2] (Y75 value) is 100000 nM. For the same compound, in assay [3] (Y75 value), the “Skeletal EC25” value came out at 360 nM.
`Cc1c(CC(=O)N[C@H](C)c2ccc(C#N)cc2F)c(=O)[nH]c2ccc(F)c(C(F)(F)F)c12` [compound 37]: in assay [1] (Y75 value (no ‡ mark)), the “Atrial EC25” value was found to be 40 nM. In addition, the “Ventricular EC25” value in assay [2] (Y75 value (no ‡ mark)) was found to be 50 nM. The “Skeletal EC25” value in assay [3] (Y75 value (no ‡ mark)) came out at 20 nM.
Regarding `Cc1nccc2[nH]c(=O)c(CC(=O)N[C@@H](C)c3ccccn3)c(C)c12` (single isomer, unassigned) [compound 325], the “Atrial EC25” value in assay [1] (setting [4]) turned out to be 100000 nM. Also, in assay [2] (Y75 value), the “Ventricular EC25” value was 100000 nM. Further, in assay [3] (Y75 value), the “Skeletal EC25” value came out at 1570 nM.
